Here are results for 25 molecules from patent US20170121315A1, “HETEROBICYCLICALLY SUBSTITUTED 4-OXOBUTANE ACID DERIVATIVES AND USE THEREOF” (priority 2014, published 2017).

Molecules are shown by their SMILES.

The target in the assay is T1, human macrophage elastase (HME/hMMP-12) (Homo sapiens, UniProt P39900).
T1 construct: purchased R&D Systems 917-MP
T1 sequence (P39900 106-470): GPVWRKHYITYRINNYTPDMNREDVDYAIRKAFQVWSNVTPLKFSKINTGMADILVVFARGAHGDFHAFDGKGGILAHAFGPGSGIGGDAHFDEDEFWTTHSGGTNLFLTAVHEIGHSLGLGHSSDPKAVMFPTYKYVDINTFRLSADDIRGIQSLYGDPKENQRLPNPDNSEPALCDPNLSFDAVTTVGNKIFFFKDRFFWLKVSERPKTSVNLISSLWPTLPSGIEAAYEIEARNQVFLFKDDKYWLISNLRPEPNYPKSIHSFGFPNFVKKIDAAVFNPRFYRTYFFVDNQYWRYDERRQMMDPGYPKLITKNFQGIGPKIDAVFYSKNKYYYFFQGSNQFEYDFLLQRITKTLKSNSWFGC
Put plainly: In vitro HME inhibition test (standard or high-sensitivity). As to conditions: in some cases mean values, rounded to two significant figures. It counts as biochemical. The method, then: The potency of the compounds according to the invention with respect to HME (MMP-12) is determined in an in vitro inhibition test. The HME-mediated amidolytic cleavage of a suitable peptide substrate leads to an increase in fluorescent light therein. The signal intensity of the fluorescent light is directly proportional to the enzyme activity. The active concentration of a test compound at which half the enzyme is inhibited (50% signal intensity of the fluorescent light) is reported as the IC50 value.
In a 384 hole microtiter plate, in a total test volume of 41 μl, the test buffer (0.1 M HEPES pH 7.4, 0.15 M NaCl, 0.03 M CaCl2, 0.004 mM ZnCl2, 0.02 M EDTA, 0.005% Brij®), the enzyme (0.5 nM HME; R&D Systems, 917-MP, autocatalytic activation according to the manufacturer's instructions) and the intramolecularly quenched substrate [5 μM Mca-Pro-Leu-Gly-Leu-Glu-Glu-Ala-Dap(Dnp)-NH2; Bachem, M-2670] are incubated in the absence and presence of the test substance (as a solution in DMSO) at 37° C. for two hours. The fluorescence intensity of the test mixtures is measured (excitation […], emission 393 nm). The IC50 values are ascertained by plotting the fluorescent light intensity against the active ingredient concentration.
In this case, an enzyme concentration ten times lower is used (final concentration, e.g. 0.05 nM) in order to achieve an increased test sensitivity. The incubation period chosen for the test is correspondingly longer (e.g. 16 hours).
Turning to `O=C(CC(CCn1nnc2ccccc2c1=O)C(=O)O)c1noc2cc(OCCC3CCOCC3)ccc12` (racemic) [Example 149, (+/−)-4-Oxo-2-[2-(4-oxo-1,2,3-benzotriazin-3(4H)-yl)ethyl]-4-{6-[2-(tetrahydro-2H-pyran-4-yl)ethoxy]-1,2-benzoxazol-3-yl}butanoic acid], it took 0.58 nM to reach half-maximal inhibition (IC50). In the case of `O=C(CC(CCn1nnc2ccccc2c1=O)C(=O)O)c1cc2cc(OCc3cccc(F)c3)ccc2o1` (racemic) [Example 43, (+/−)-4-{5-[(3-Fluorobenzyl)oxy]-1-benzofur-2-yl}-4-oxo-2-[2-(4-oxo-1,2,3-benzotriazin-3(4H)-yl)ethyl]butanoic acid], 1.3 nM corresponded to half-maximal inhibition (IC50). In turn, `O=C(CC(CCn1nnc2ccccc2c1=O)C(=O)O)c1cc2ccc(OCCC3CCOCC3)cc2o1` (racemic) [Example 54, (+/−)-4-Oxo-2-[2-(4-oxo-1,2,3-benzotriazin-3(4H)-yl)ethyl]-4-{6-[2-(tetrahydro-2H-pyran-4-yl)ethoxy]-1-benzofur-2-yl}butanoic acid] had an IC50 of 5.6 nM. To `O=C(CC(CCn1nnc2ccccc2c1=O)C(=O)O)c1cc2cc(OCc3ccc(F)cc3)ccc2o1` (single isomer, unassigned; (-)) [Example 24, (−)-4-{5-[(4-Fluorobenzyl)oxy]-1-benzofur-2-yl}-4-oxo-2-[2-(4-oxo-1,2,3-benzotriazin-3(4H)-yl)ethyl]butanoic acid] belongs 210 nM; to `O=C(CC(CCn1nnc2ccccc2c1=O)C(=O)O)c1cc2ccc(OCc3ccncc3)cc2s1` (racemic) [Example 123, (+/−)-4-Oxo-2-[2-(4-oxo-1,2,3-benzotriazin-3(4H)-yl)ethyl]-4-[6-(pyridin-4-ylmethoxy)-1-benzothiophen-2-yl]butanoic acid], 2.7 nM; to `O=C(CC(CCn1nnc2ccccc2c1=O)C(=O)O)c1coc2cc(OCc3ccccc3)ccc12` (single isomer, unassigned; (+)) [Example 85, (+)-4-[6-(Benzyloxy)-1-benzofur-3-yl]-4-oxo-2-[2-(4-oxo-1,2,3-benzotriazin-3(4H)-yl)ethyl]butanoic acid], 0.38 nM.

The molecule `CC(C)COc1ccc2c(C(=O)CC(CCn3nnc4ccccc4c3=O)C(=O)O)coc2c1` (racemic) [Example 104, (+/−)-4-(6-Isobutoxy-1-benzofur-3-yl)-4-oxo-2-[2-(4-oxo-1,2,3-benzotriazin-3(4H)-yl)ethyl]butanoic acid] displayed an IC50 of 1.1 nM. To `O=C(CC(CCn1nnc2ccccc2c1=O)C(=O)O)c1cc2cc(OCc3ccncc3)ccc2o1` (racemic) [Example 47, (+/−)-4-Oxo-2-[2-(4-oxo-1,2,3-benzotriazin-3(4H)-yl)ethyl]-4-[5-(pyridin-4-ylmethoxy)-1-benzofur-2-yl]butanoic acid] belongs 0.94 nM; to `O=C(CC(CCn1nnc2ccccc2c1=O)C(=O)O)c1cc2cc(OCc3ccc(Cl)c(Cl)c3)ccc2o1` (single isomer, unassigned; (-)) [Example 26, (−)-4-{5-[(3,4-Dichlorobenzyl)oxy]-1-benzofur-2-yl}-4-oxo-2-[2-(4-oxo-1,2,3-benzotriazin-3(4H)-yl)ethyl]butanoic acid], 160 nM. Take `O=C(CC(CCn1nnc2ccccc2c1=O)C(=O)O)c1cc2cc(OCc3ccc4nonc4c3)ccc2o1` (racemic) [Example 36, (+/−)-4-[5-(2,1,3-Benzoxadiazol-5-ylmethoxy)-1-benzofur-2-yl]-4-oxo-2-[2-(4-oxo-1,2,3-benzotriazin-3(4H)-yl)ethyl]butanoic acid]: the IC50 is 0.33 nM.

`O=C(CC(CCn1nnc2ccccc2c1=O)C(=O)O)c1coc2cc(OCc3ccc(Cl)c(Cl)c3)ccc12` (single isomer, unassigned) [Example 93, 4-{6-[(3,4-Dichlorobenzyl)oxy]-1-benzofur-3-yl}-4-oxo-2-[2-(4-oxo-1,2,3-benzotriazin-3(4H)-yl)ethyl]butanoic acid] registered an IC50 of 97 nM.

With `O=C(CC(CCn1nnc2ccccc2c1=O)C(=O)O)c1noc2cc(OCc3ccc(Cl)cc3)ccc12` (racemic) [Example 147, (+/−)-4-{6-[(4-Chlorobenzyl)oxy]-1,2-benzoxazol-3-yl}-4-oxo-2-[2-(4-oxo-1,2,3-benzotriazin-3(4H)-yl)ethyl]butanoic acid], half-maximal inhibition (IC50) was put at 1.7 nM. The same measure for `CCCOc1ccc2c(C(=O)CC(CCn3nnc4ccccc4c3=O)C(=O)O)coc2c1` (single isomer, unassigned; (+)) [Example 88, (+)-4-Oxo-2-[2-(4-oxo-1,2,3-benzotriazin-3(4H)-yl)ethyl]-4-(6-propoxy-1-benzofur-3-yl)butanoic acid]: 1.1 nM; for `O=C(CC(CCn1nnc2ccccc2c1=O)C(=O)O)c1noc2cc(OCc3ccc(F)cc3)ccc12` (single isomer, unassigned; enantiomer 2) [Example 138, 4-{6-[(4-Fluorobenzyl)oxy]-1,2-benzoxazol-3-yl}-4-oxo-2-[2-(4-oxo-1,2,3-benzotriazin-3(4H)-yl)ethyl]butanoic acid (enantiomer 2)]: 0.33 nM. To `CC(C)CCCCOc1ccc2oc(C(=O)CC(CCn3nnc4ccccc4c3=O)C(=O)O)cc2c1` (racemic) [Example 41, (+/−)-4-{5-[(5-Methylhexyl)oxy]-1-benzofur-2-yl}-4-oxo-2-[2-(4-oxo-1,2,3-benzotriazin-3(4H)-yl)ethyl]butanoic acid] belongs 3.9 nM.

`O=C(CC(CCn1nnc2ccccc2c1=O)C(=O)O)c1coc2cc(OCc3cccc(Cl)c3)ccc12` (racemic) [Example 77, (+/−)-4-{6-[(3-Chlorobenzyl)oxy]-1-benzofur-3-yl}-4-oxo-2-[2-(4-oxo-1,2,3-benzotriazin-3(4H)-yl)ethyl]butanoic acid] gave an IC50 of 2.9 nM.

Consider `CCCOc1ccc2cc(C(=O)CC(CCn3nnc4ccc(C(F)(F)F)cc4c3=O)C(=O)O)sc2c1` (racemic) [Example 132, (+/−)-4-Oxo-2-{2-[4-oxo-6-(trifluoromethyl)-1,2,3-benzotriazin-3(4H)-yl]ethyl}-4-(6-propoxy-1-benzothiophen-2-yl)butanoic acid], for which inhibition was half-maximal at 0.51 nM (IC50). To `O=C(CC(CCn1nnc2ccccc2c1=O)C(=O)O)c1coc2cc(OCC3CCOCC3)ccc12` (single isomer, unassigned; (+)) [Example 96, (+)-4-Oxo-2-[2-(4-oxo-1,2,3-benzotriazin-3(4H)-yl)ethyl]-4-[6-(tetrahydro-2H-pyran-4-ylmethoxy)-1-benzofur-3-yl]butanoic acid] belongs 0.81 nM. `O=C(CC(CCn1nnc2ccccc2c1=O)C(=O)O)c1cc2cc(OCc3ccccc3)ccc2o1` (single isomer, unassigned; (-)) [Example 29, (−)-4-[5-(Benzyloxy)-1-benzofur-2-yl]-4-oxo-2-[2-(4-oxo-1,2,3-benzotriazin-3(4H)-yl)ethyl]butanoic acid] returned an IC50 of 770 nM. The same measure for `O=C(CC(CCn1nnc2ccccc2c1=O)C(=O)O)c1cc2ccc(OCC3CC3)cc2s1` (single isomer, unassigned; (-)) [Example 113, (−)-4-[6-(Cyclopropylmethoxy)-1-benzothiophen-2-yl]-4-oxo-2-[2-(4-oxo-1,2,3-benzotriazin-3(4H)-yl)ethyl]butanoic acid]: 4300 nM; for `O=C(CC(CCn1nnc2ccccc2c1=O)C(=O)O)c1cc2cc(OCc3ccc(Cl)c(Cl)c3)ccc2o1` (single isomer, unassigned; (+)) [Example 27, (+)-4-{5-[(3,4-Dichlorobenzyl)oxy]-1-benzofur-2-yl}-4-oxo-2-[2-(4-oxo-1,2,3-benzotriazin-3(4H)-yl)ethyl]butanoic acid]: 0.19 nM; for `N#CCCCCOc1ccc2oc(C(=O)CC(CCn3nnc4ccccc4c3=O)C(=O)O)cc2c1` (racemic) [Example 53, (+/−)-4-[5-(4-Cyanobutoxy)-1-benzofur-2-yl]-4-oxo-2-[2-(4-oxo-1,2,3-benzotriazin-3(4H)-yl)ethyl]butanoic acid]: 2.9 nM.

`CCCCOc1ccc2cc(C(=O)CC(CCn3nnc4ccccc4c3=O)C(=O)O)sc2c1` (racemic) [Example 126, (+/−)-4-(6-Butoxy-1-benzothiophen-2-yl)-4-oxo-2-[2-(4-oxo-1,2,3-benzotriazin-3(4H)-yl)ethyl]butanoic acid] returned an IC50 of 2.9 nM. The molecule `O=C(CC(CCn1nnc2ccc(C(F)(F)F)cc2c1=O)C(=O)O)c1cc2ccc(OCC3CC3)cc2s1` (single isomer, unassigned; enantiomer 1) [Example 129, 4-[6-(Cyclopropylmethoxy)-1-benzothiophen-2-yl]-4-oxo-2-{2-[4-oxo-6-(trifluoromethyl)-1,2,3-benzotriazin-3(4H)-yl]ethyl}butanoic acid (enantiomer 1)] had an IC50 of 13 nM. The same measure for `O=C(CC(CCn1nnc2ccccc2c1=O)C(=O)O)c1cc2ccc(OCCCC(F)(F)F)cc2s1` (racemic) [Example 120, (+/−)-4-Oxo-2-[2-(4-oxo-1,2,3-benzotriazin-3(4H)-yl)ethyl]-4-[6-(4,4,4-trifluorobutoxy)-1-benzothiophen-2-yl]butanoic acid]: 3.6 nM.
